The supplement of paper PMC10307832

Tests used:
Assay in all cases: relative viability (nuclei count vs DMSO), 5 days (fraction); higher = more cells survive
NCI-H650 = system: NCI-H650
Method in brief: (§1)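 Cells from lung cancer lines were seeded into 1536-well plates and, one day later, dosed by pin tool. Treatments were either a single drug or a fixed dose of an anchor drug with five library-drug doses (not always all listed) in √10 steps. After 5 days, nuclei were stained in a one-step fixation (final 0.05% Triton X-100, 1% formaldehyde, 1 ug/ml Hoechst) and counted on 4× images, and relative viability is the treated-to-vehicle nuclei ratio, as the median of duplicate plates.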

LCLC-97TM1 = system: LCLC-97TM1
Method in brief: as §1

RERF-LC-KJ = system: RERF-LC-KJ
Method in brief: as §1

NCI-H2087 = system: NCI-H2087
Method in brief: as §1

EPLC-272H = system: EPLC-272H
Method in brief: as §1

NCI-H23 = system: NCI-H23
Method in brief: as §1

NCI-H322M = system: NCI-H322M
Method in brief: as §1

LC-2-ad = system: LC-2-ad
Method in brief: as §1

H3255 = system: H3255
Method in brief: as §1

201T = system: 201T
Method in brief: as §1

HCC-78 = system: HCC-78
Method in brief: as §1

NCI-H647 = system: NCI-H647
Method in brief: as §1

COR-L 105 = system: COR-L 105
Method in brief: as §1

NCI-H2405 = system: NCI-H2405
Method in brief: as §1

NCI-H2347 = system: NCI-H2347
Method in brief: as §1

NCI-H1666 = system: NCI-H1666
Method in brief: as §1

NCI-H2126 = system: NCI-H2126
Method in brief: as §1

ChaGo-K-1 = system: ChaGo-K-1
Method in brief: as §1

NCI-H1915 = system: NCI-H1915
Method in brief: as §1

HCC-827 = system: HCC-827
Method in brief: as §1

NCI-H520 = system: NCI-H520
Method in brief: as §1

PC-14 = system: PC-14
Method in brief: as §1

NCI-H661 = system: NCI-H661
Method in brief: as §1

## Clc1ccc(Nc2nnc(Cc3ccncc3)c3ccccc23)cc1 [Vatalanib] + CS(=O)(=O)N1CCN(Cc2cc3nc(-c4cccc5[nH]ncc45)nc(N4CCOCC4)c3s2)CC1 [Pictilisib] (partner 1 µM)
NCI-H650; first compound 0.04 µM
  relative viability: 0.875
NCI-H650; first compound 0.1265 µM
  relative viability: 0.914
NCI-H650; first compound 1.265 µM
  relative viability: 0.868
NCI-H650; first compound 4 µM
  relative viability: 0.909
LCLC-97TM1; first compound 0.04 µM
  relative viability: 0.136
LCLC-97TM1; first compound 0.1265 µM
  relative viability: 0.243
LCLC-97TM1; first compound 0.4 µM
  relative viability: 0.187
LCLC-97TM1; first compound 1.265 µM
  relative viability: 0.19
LCLC-97TM1; first compound 4 µM
  relative viability: 0.195
RERF-LC-KJ; first compound 0.04 µM
  relative viability: 0.486
RERF-LC-KJ; first compound 0.1265 µM
  relative viability: 0.579
RERF-LC-KJ; first compound 0.4 µM
  relative viability: 0.745
RERF-LC-KJ; first compound 1.265 µM
  relative viability: 0.422
RERF-LC-KJ; first compound 4 µM
  relative viability: 0.481
NCI-H2087; first compound 0.04 µM
  relative viability: 0.871
NCI-H2087; first compound 0.1265 µM
  relative viability: 0.752
NCI-H2087; first compound 0.4 µM
  relative viability: 1.15
NCI-H2087; first compound 1.265 µM
  relative viability: 0.826
NCI-H2087; first compound 4 µM
  relative viability: 0.931
EPLC-272H; first compound 0.04 µM
  relative viability: 0.35
EPLC-272H; first compound 0.1265 µM
  relative viability: 0.309
EPLC-272H; first compound 0.4 µM
  relative viability: 0.151
EPLC-272H; first compound 1.265 µM
  relative viability: 0.332
EPLC-272H; first compound 4 µM
  relative viability: 0.344
NCI-H23; first compound 0.04 µM
  relative viability: 0.45
NCI-H23; first compound 0.1265 µM
  relative viability: 0.412
NCI-H23; first compound 0.4 µM
  relative viability: 0.511
NCI-H23; first compound 1.265 µM
  relative viability: 0.436
NCI-H23; first compound 4 µM
  relative viability: 0.552
NCI-H322M; first compound 0.04 µM
  relative viability: 0.513
NCI-H322M; first compound 0.1265 µM
  relative viability: 0.489
NCI-H322M; first compound 0.4 µM
  relative viability: 0.555
NCI-H322M; first compound 1.265 µM
  relative viability: 0.534
NCI-H322M; first compound 4 µM
  relative viability: 0.553
LC-2-ad; first compound 0.04 µM
  relative viability: 0.574
LC-2-ad; first compound 0.1265 µM
  relative viability: 0.551
LC-2-ad; first compound 0.4 µM
  relative viability: 0.559
LC-2-ad; first compound 1.265 µM
  relative viability: 0.509
LC-2-ad; first compound 4 µM
  relative viability: 0.645
H3255; first compound 0.04 µM
  relative viability: 0.43
H3255; first compound 0.1265 µM
  relative viability: 0.52
H3255; first compound 0.4 µM
  relative viability: 0.311
H3255; first compound 1.265 µM
  relative viability: 0.384
H3255; first compound 4 µM
  relative viability: 0.438
201T; first compound 0.04 µM
  relative viability: 0.694
201T; first compound 0.1265 µM
  relative viability: 0.667
201T; first compound 0.4 µM
  relative viability: 0.706
201T; first compound 1.265 µM
  relative viability: 0.663
201T; first compound 4 µM
  relative viability: 0.722
HCC-78; first compound 0.04 µM
  relative viability: 0.199
HCC-78; first compound 0.1265 µM
  relative viability: 0.172
HCC-78; first compound 0.4 µM
  relative viability: 0.183
HCC-78; first compound 4 µM
  relative viability: 0.196
NCI-H647; first compound 0.04 µM
  relative viability: 0.387
NCI-H647; first compound 0.1265 µM
  relative viability: 0.42
NCI-H647; first compound 1.265 µM
  relative viability: 0.385
NCI-H647; first compound 4 µM
  relative viability: 0.4
COR-L 105; first compound 0.04 µM
  relative viability: 0.361
COR-L 105; first compound 0.1265 µM
  relative viability: 0.4
COR-L 105; first compound 0.4 µM
  relative viability: 0.276
COR-L 105; first compound 1.265 µM
  relative viability: 0.359
COR-L 105; first compound 4 µM
  relative viability: 0.377
NCI-H2405; first compound 0.04 µM
  relative viability: 0.506
NCI-H2405; first compound 0.1265 µM
  relative viability: 0.429
NCI-H2405; first compound 1.265 µM
  relative viability: 0.352
NCI-H2405; first compound 4 µM
  relative viability: 0.493
NCI-H2347; first compound 0.04 µM
  relative viability: 0.709
NCI-H2347; first compound 0.1265 µM
  relative viability: 0.723
NCI-H2347; first compound 0.4 µM
  relative viability: 0.409
NCI-H2347; first compound 1.265 µM
  relative viability: 0.92
NCI-H2347; first compound 4 µM
  relative viability: 0.319
NCI-H1666; first compound 0.04 µM
  relative viability: 0.538
NCI-H1666; first compound 0.1265 µM
  relative viability: 0.334
NCI-H1666; first compound 0.4 µM
  relative viability: 0.33
NCI-H1666; first compound 1.265 µM
  relative viability: 0.512
NCI-H1666; first compound 4 µM
  relative viability: 0.499
NCI-H2126; first compound 0.04 µM
  relative viability: 0.488
NCI-H2126; first compound 0.1265 µM
  relative viability: 0.512
NCI-H2126; first compound 0.4 µM
  relative viability: 0.524
NCI-H2126; first compound 1.265 µM
  relative viability: 0.47
NCI-H2126; first compound 4 µM
  relative viability: 0.494
ChaGo-K-1; first compound 0.04 µM
  relative viability: 0.418
ChaGo-K-1; first compound 0.1265 µM
  relative viability: 0.719
ChaGo-K-1; first compound 1.265 µM
  relative viability: 0.687
ChaGo-K-1; first compound 4 µM
  relative viability: 0.787
NCI-H1915; first compound 0.04 µM
  relative viability: 1.12
NCI-H1915; first compound 0.1265 µM
  relative viability: 0.929
NCI-H1915; first compound 0.4 µM
  relative viability: 0.972
NCI-H1915; first compound 1.265 µM
  relative viability: 0.863
NCI-H1915; first compound 4 µM
  relative viability: 0.942
HCC-827; first compound 0.04 µM
  relative viability: 0.974
HCC-827; first compound 0.1265 µM
  relative viability: 0.872
HCC-827; first compound 0.4 µM
  relative viability: 0.925
HCC-827; first compound 1.265 µM
  relative viability: 1.06
HCC-827; first compound 4 µM
  relative viability: 0.863
NCI-H520; first compound 0.04 µM
  relative viability: 0.312
NCI-H520; first compound 0.1265 µM
  relative viability: 0.277
NCI-H520; first compound 0.4 µM
  relative viability: 0.34
NCI-H520; first compound 1.265 µM
  relative viability: 0.306
NCI-H520; first compound 4 µM
  relative viability: 0.308
PC-14; first compound 0.04 µM
  relative viability: 0.832
PC-14; first compound 0.1265 µM
  relative viability: 0.712
PC-14; first compound 0.4 µM
  relative viability: 0.693
PC-14; first compound 1.265 µM
  relative viability: 0.69
PC-14; first compound 4 µM
  relative viability: 0.679
NCI-H661; first compound 0.04 µM
  relative viability: 0.345
NCI-H661; first compound 0.1265 µM
  relative viability: 0.378
NCI-H661; first compound 0.4 µM
  relative viability: 0.392
NCI-H661; first compound 1.265 µM
  relative viability: 0.365
NCI-H661; first compound 4 µM
  relative viability: 0.34
